# Experimental data taken from ChEMBL document CHEMBL2010789, “Identification of 3-acyl-2-phenylamino-1,4-dihydroquinolin-4-one derivatives as inhibitors of the phosphatase SerB653 in Porphyromonas gingivalis, implicated in periodontitis” (Bioorg Med Chem Lett, 2012).
# Active and inactive are the calls of the source. The calls are words filed in the database; no cut-off is given here.
# Experiments:
# [1] = Inhibition of Porphyromonas gingivalis recombinant SerB653 phosphatase expressed in Escherichia coli BL21 using phosphoserine as substrate after 1 hr by malachite green colorimetric assay
# [2] = tested on: Porphyromonas gingivalis; test: Inhibition of Porphyromonas gingivalis recombinant SerB653 phosphatase expressed in Escherichia coli BL21 using phosphoserine as substrate at 50 uM after 1 hr by malachite green colorimetric assay
# [3] = Inhibition of Porphyromonas gingivalis recombinant SerB653 phosphatase expressed in Escherichia coli BL21 using phosphoserine as substrate measured every 10 secs by malachite green colorimetric assay
# [4] = tested on: Porphyromonas gingivalis; test: Antibacterial activity against Porphyromonas gingivalis ATCC 33277 after 2 hrs by broth microdilution method; format: functional; settings: ATCC 33277, 2 h
# [5] = tested on: Porphyromonas gingivalis; test: Competitive inhibition of Porphyromonas gingivalis recombinant SerB653 phosphatase expressed in Escherichia coli BL21 using phosphoserine as substrate by Lineweaver-Burk plot analysis
IC50 [1] [µM],inhibition [2] [%],MIC [4] [µg/mL],inhibition [5],Compound,Ki [3] [µM]
4,97.8,0.05,–,CCC(=O)c1c(Nc2cc(Cl)ccc2Cl)[nH]c2c(Cl)ccc([N+](=O)[O-])c2c1=O,1.4
19.3,98.5,–,–,CC(=O)c1c(Nc2cc(C(F)(F)F)cc(C(F)(F)F)c2)[nH]c2c(Cl)ccc(F)c2c1=O,–
–,0,–,–,CC(=O)c1c(Nc2ccc(C(C)(C)C)cc2)[nH]c2c([N+](=O)[O-])cc(Cl)cc2c1=O,–
17,99.4,–,–,O=C(c1c(Nc2cc(Cl)cc(Cl)c2)[nH]c2c(Cl)ccc([N+](=O)[O-])c2c1=O)C1CC1,–
19.1,96.3,–,–,CC(C)C(=O)c1c(Nc2cccc(Cl)c2Cl)[nH]c2c(Cl)ccc([N+](=O)[O-])c2c1=O,–
–,5.9,–,–,CC(=O)c1c(Nc2cc(F)cc(F)c2)[nH]c2c(F)ccc(F)c2c1=O,–
8,97.7,–,–,CC(C)C(=O)c1c(Nc2ccc(Cl)cc2Cl)[nH]c2c(Cl)ccc(Cl)c2c1=O,2.9
–,2.3,–,–,CC(=O)c1c(Nc2ccc(F)cc2F)[nH]c2c(C)ccc(Cl)c2c1=O,–
17.6,98.1,–,–,O=C(c1c(Nc2ccc(Cl)cc2Cl)[nH]c2c(Cl)ccc([N+](=O)[O-])c2c1=O)C1CC1,–
–,6.2,–,–,COc1ccc(Nc2[nH]c3c([N+](=O)[O-])cc(Cl)cc3c(=O)c2C(C)=O)cc1,–
–,2.2,–,–,CC(=O)c1c(Nc2ccc(C)cc2)[nH]c2c([N+](=O)[O-])cc(Cl)cc2c1=O,–
16.3,97.5,–,–,CC(C)CC(=O)c1c(Nc2cc(F)cc(F)c2)[nH]c2c(Cl)ccc([N+](=O)[O-])c2c1=O,–
19,98.3,–,–,CC(=O)c1c(Nc2cc(Cl)ccc2Cl)[nH]c2c(Cl)ccc([N+](=O)[O-])c2c1=O,–
12.6,98.5,–,–,O=C(c1c(Nc2cccc(Cl)c2Cl)[nH]c2c(Cl)ccc([N+](=O)[O-])c2c1=O)C1CC1,4.5
19.6,96.7,–,–,CC(=O)c1c(Nc2cccc(Cl)c2Cl)[nH]c2c(Cl)ccc([N+](=O)[O-])c2c1=O,–
18.6,93.5,–,–,CC(=O)c1c(Nc2cc(F)cc(F)c2)[nH]c2c(Cl)c(Cl)ccc2c1=O,–
–,1.6,–,–,CC(=O)c1c(Nc2cccc(C)c2)[nH]c2c(Cl)c(Cl)ccc2c1=O,–
16.7,86.6,–,–,CC(=O)c1c(Nc2cc(Cl)ccc2Cl)[nH]c2c(Cl)ccc(Cl)c2c1=O,–
19.3,97.3,–,–,CC(C)CC(=O)c1c(Nc2ccc(Cl)cc2F)[nH]c2c(Cl)ccc([N+](=O)[O-])c2c1=O,–
17.9,99.1,–,–,CC(C)C(=O)c1c(Nc2cc(Cl)cc(Cl)c2)[nH]c2c(Cl)ccc([N+](=O)[O-])c2c1=O,–
7.5,95.7,–,–,CC(=O)c1c(Nc2ccc(Cl)cc2)[nH]c2c(C(F)(F)F)cc(Cl)cc2c1=O,2.7

IC50 [1] [µM],inhibition [2] [%],MIC [4] [µg/mL],inhibition [5],Compound,Ki [3] [µM]
17.6,92.2,–,–,CC(=O)c1c(Nc2cc(F)cc(F)c2)[nH]c2c([N+](=O)[O-])cc(Cl)cc2c1=O,–
–,3.1,–,–,CC(=O)c1c(Nc2ccccc2)[nH]c2c([N+](=O)[O-])cc(Cl)cc2c1=O,–
16.8,89.1,–,–,CC(=O)c1c(Nc2ccccc2Cl)[nH]c2c(C(F)(F)F)cc(Cl)cc2c1=O,–
9.2,94.9,–,–,CC(C)C(=O)c1c(Nc2cc(Cl)cc(Cl)c2)[nH]c2c(Cl)ccc(Cl)c2c1=O,3.3
–,9.3,–,–,CC(=O)c1c(Nc2ccc(F)cc2)[nH]c2c([N+](=O)[O-])cc(Cl)cc2c1=O,–
–,1.4,–,–,CC(=O)c1c(Nc2ccc(Br)cc2)[nH]c2c(F)ccc(F)c2c1=O,–
–,3.6,–,–,COc1cccc(Nc2[nH]c3c(Cl)c(Cl)ccc3c(=O)c2C(C)=O)c1,–
–,4.8,–,–,CC(=O)c1c(Nc2ccccc2)[nH]c2c(Cl)c(Cl)ccc2c1=O,–
5.5,97.1,0.05,–,CCC(=O)c1c(Nc2cccc(Cl)c2Cl)[nH]c2c(Cl)ccc([N+](=O)[O-])c2c1=O,2
–,32.4,–,–,CC(=O)c1c(Nc2ccc(F)c(F)c2F)[nH]c2c(Cl)ccc(C)c2c1=O,–
–,9.1,–,–,CC(=O)c1c(Nc2ccc(F)cc2F)[nH]c2c(Cl)ccc(F)c2c1=O,–
7,97.7,–,–,CC(=O)c1c(Nc2ccc(C(F)(F)F)cc2)[nH]c2c(C(F)(F)F)cc(Cl)cc2c1=O,2.5
19.3,91,–,–,CC(C)CC(=O)c1c(Nc2cc(F)ccc2F)[nH]c2c(Cl)ccc(Cl)c2c1=O,–
18.7,98.2,–,–,O=C(c1c(Nc2cc(Cl)ccc2Cl)[nH]c2c(Cl)ccc([N+](=O)[O-])c2c1=O)C1CC1,–
–,24.5,–,–,CC(=O)c1c(Nc2ccc(Cl)cc2F)[nH]c2c(Cl)ccc(C)c2c1=O,–
–,7.9,–,–,CC(=O)c1c(Nc2cc(F)ccc2F)[nH]c2c(F)ccc(F)c2c1=O,–
19.8,94.9,–,–,CCC(=O)c1c(Nc2ccc(Cl)cc2F)[nH]c2c(Cl)ccc([N+](=O)[O-])c2c1=O,–
19.4,92.7,–,–,CCC(=O)c1c(Nc2cc(F)cc(F)c2)[nH]c2c(Cl)ccc([N+](=O)[O-])c2c1=O,–
7,99,–,–,CC(=O)c1c(Nc2ccc(Cl)cc2Cl)[nH]c2c(C(F)(F)F)cc(Cl)cc2c1=O,2.5
–,0,–,–,COc1cccc(Nc2[nH]c3c([N+](=O)[O-])cc(Cl)cc3c(=O)c2C(C)=O)c1,–
11.6,98.5,–,–,CCC(=O)c1c(Nc2ccc(Cl)c(Cl)c2)[nH]c2c(Cl)ccc([N+](=O)[O-])c2c1=O,4.1

IC50 [1] [µM],inhibition [2] [%],MIC [4] [µg/mL],inhibition [5],Compound,Ki [3] [µM]
18.7,95.5,–,–,O=C(c1c(Nc2ccc(Cl)cc2F)[nH]c2c(Cl)ccc([N+](=O)[O-])c2c1=O)C1CC1,–
19,97.3,–,–,CC(C)C(=O)c1c(Nc2cc(Cl)ccc2Cl)[nH]c2c(Cl)ccc([N+](=O)[O-])c2c1=O,–
6.9,97.4,–,–,CCC(=O)c1c(Nc2cc(Cl)cc(Cl)c2)[nH]c2c(Cl)ccc([N+](=O)[O-])c2c1=O,2.5
16.5,94.3,–,–,CC(C)C(=O)c1c(Nc2ccc(Cl)cc2F)[nH]c2c(Cl)ccc([N+](=O)[O-])c2c1=O,–
18.9,98.6,–,–,CC(C)CC(=O)c1c(Nc2cccc(Cl)c2Cl)[nH]c2c(Cl)ccc([N+](=O)[O-])c2c1=O,–
18.7,99.1,–,–,CC(C)CC(=O)c1c(Nc2cc(Cl)cc(Cl)c2)[nH]c2c(Cl)ccc([N+](=O)[O-])c2c1=O,–
11.5,89.7,–,–,O=C(c1c(Nc2ccc(Cl)c(Cl)c2)[nH]c2c(Cl)ccc(Cl)c2c1=O)C1CC1,4.1
18.6,96.3,–,–,CC(=O)c1c(Nc2ccc(Cl)cc2Cl)[nH]c2c(C(F)(F)F)cccc2c1=O,–
2.8,96.2,0.006,Active,O=C(c1c(Nc2cc(F)cc(F)c2)[nH]c2c(Cl)ccc([N+](=O)[O-])c2c1=O)C1CC1,1
18.8,98.8,–,–,CC(C)CC(=O)c1c(Nc2cc(Cl)ccc2Cl)[nH]c2c(Cl)ccc([N+](=O)[O-])c2c1=O,–
19.4,95,–,–,CC(=O)c1c(Nc2cc(C(F)(F)F)cc(C(F)(F)F)c2)[nH]c2c(F)ccc(F)c2c1=O,–
19.6,97.8,–,–,CC(C)CC(=O)c1c(Nc2ccc(Cl)cc2Cl)[nH]c2c(Cl)ccc([N+](=O)[O-])c2c1=O,–
12.3,80.1,–,–,CC(C)C(=O)c1c(Nc2ccc(F)cc2F)[nH]c2c(Cl)ccc([N+](=O)[O-])c2c1=O,–
–,0,–,–,CC(=O)c1c(Nc2cccc(F)c2C)[nH]c2c(F)ccc(F)c2c1=O,–
–,0,–,–,CC(=O)c1c(Nc2ccc(F)cc2F)[nH]c2c(F)ccc(F)c2c1=O,–
18.8,99.3,–,–,CC(=O)c1c(Nc2cc(Cl)cc(Cl)c2)[nH]c2c(Cl)ccc([N+](=O)[O-])c2c1=O,–
14.5,87,–,–,CC(=O)c1c(Nc2ccc([N+](=O)[O-])cc2)[nH]c2c([N+](=O)[O-])cc(Cl)cc2c1=O,–
–,8.6,–,–,CC(=O)c1c(Nc2cc(Cl)cc(Cl)c2)[nH]c2c(C)ccc(Cl)c2c1=O,–
19.1,94.7,–,–,CC(C)C(=O)c1c(Nc2cc(F)cc(F)c2)[nH]c2c(Cl)ccc([N+](=O)[O-])c2c1=O,–
19.6,97.4,–,–,CCC(=O)c1c(Nc2ccc(Cl)cc2Cl)[nH]c2c(Cl)ccc([N+](=O)[O-])c2c1=O,–
11.3,85.6,–,–,O=C(c1c(Nc2ccc(F)cc2F)[nH]c2c(Cl)ccc([N+](=O)[O-])c2c1=O)C1CC1,4
